According to ChEMBL document CHEMBL6096696, “Structure-Activity Relationship Studies of an Autophagy Inhibitor That Targets the ATG14L-Beclin1 Protein-Protein Interaction Reveal Modifications That Improve Potency and Solubility and Maintain Selectivity” (J Med Chem, 2025):
Values after ≈ are worked out from the molar mass of the structure shown. Active and inactive are the calls of the source. The rule behind the calls is not given here.

What was measured:
[1] = Kinetic aqueous solubility of compound in PBS at pH 7.4 by absorbance based analysis; assay type: physicochemical; settings: read-out: Kinetic_solubility
[2] = test system: HEK293T; test: Inhibition of C-terminal Nano-luc tagged UVRAG/C-terminal Halo-tagged Beclin 1 (unknown origin) PPI tranfected with HEK293T cells using […] at 100 uM incubated for 24 hrs by […] assay relative to control; assay type: cell-based; settings: Homo sapiens, values are per cent of control
[3] = test system: HEK293T; test: Inhibition of C-terminal Nano-luc tagged ATG14L/C-terminal Halo-tagged Beclin 1 (unknown origin) PPI tranfected with HEK293T cells using […] at 100 uM incubated for 24 hrs by […] assay relative to control; assay type: cell-based; settings: Homo sapiens, values are per cent of control
[4] = Selectivity ratio of inhibition of C-terminal Nano-luc tagged UVRAG/C-terminal Halo-tagged Beclin 1 (unknown origin) PPI tranfected with HEK293T cells to inhibition of C-terminal Nano-luc tagged ATG14L/C-terminal Halo-tagged Beclin 1 (unknown origin) PPI tranfected with HEK293T cells
[5] = test system: HeLa; test: Cytotoxicity against human HeLa cells expressing eGFP-LC3 at 100 uM; assay type: functional, cell-based
[6] = Inhibition of C-terminal Nano-luc tagged ATG14L/C-terminal Halo-tagged Beclin 1 (unknown origin) PPI tranfected with HEK293T cells using […] incubated for 24 hrs by […] assay; assay type: cell-based, Homo sapiens

| SMILES | solubility kinetic [1] [µM] | residual binding, % of control [2] [%] | residual binding, % of control [3] [%] | Selectivity ratio [4] | Activity [5] | IC50 [6] [µM] |
| --- | --- | --- | --- | --- | --- | --- |
| Cc1cccc(-c2ccc3c(c2)N(Cc2noc(C4CCC4)n2)C(=O)CO3)c1 | > 100 | 102 | 90.8 | 1.13 |  |  |
| O=C1COc2ccc(-c3cccc(Cl)c3Cl)cc2N1Cc1noc(C2CCC2)n1 | > 100 | 101 | 86.8 | 1.17 | Active; Compound Showed Less Cytotoxicity |  |
| O=C1COc2ccc(-c3ccccc3F)cc2N1Cc1noc(C2CCC2)n1 | > 100 | 98 | 79 | 1.24 |  |  |
| CCCN1C(=O)COc2ccc(-c3ccccc3O)cc21 | > 100 | 104 | 82.5 | 1.26 | Active |  |
| Cc1cccc(Nc2ccc3c(c2)N(Cc2noc(C4CCC4)n2)C(=O)CO3)c1C | > 100 | 119 | 79.3 | 1.5 |  |  |
| CCCN1C(=O)COc2ccc(-c3ccncc3)cc21 | > 100 | 108 | 106 | 1.03 | Active |  |
| CC(C)c1ccccc1-c1ccc2c(c1)N(Cc1noc(C3CCC3)n1)C(=O)CO2 | > 100 | 92.9 | 71.6 | 1.29 | Active; Compound Showed Less Cytotoxicity |  |
| O=C1COc2ccc(Nc3ccccc3Cl)cc2N1Cc1noc(C2CCC2)n1 | > 100 | 104 | 93.6 | 1.11 |  |  |
| Cc1cccc(NS(=O)(=O)c2ccc3c(c2)N(Cc2noc(C4CCC4)n2)C(=O)CO3)c1C | 50 (≈ 23.4 µg/mL) |  | 60.6 |  |  | 33.9 |
| O=C1COc2ccc(Nc3cccc(Cl)c3Cl)cc2N1Cc1noc(C2CCC2)n1 | 25 (≈ 11.1 µg/mL) | 108 | 86.2 | 1.25 |  |  |
| O=C1COc2ccc(-c3cccc(OC(F)(F)F)c3)cc2N1Cc1noc(C2CCC2)n1 | > 100 | 110 | 105 | 1.05 |  |  |
| Cc1cccc(-c2ccc3c(c2)N(Cc2noc(C4CCC4)n2)C(=O)CO3)c1Cl | > 100 | 117 | 80.5 | 1.45 | Active; Compound Showed Less Cytotoxicity |  |
| CCCN1C(=O)COc2ccc(NS(=O)(=O)c3c(C(C)C)cc(C(C)C)cc3C(C)C)cc21 | > 100 |  | 59.9 |  |  |  |
| O=C1COc2ccc(-c3cccc(F)c3)cc2N1Cc1noc(C2CCC2)n1 | 50 (≈ 19 µg/mL) | 101 | 90.3 | 1.11 |  |  |
| Cc1cccc(NS(=O)(=O)c2ccc3c(c2)N(CC2CCCCC2)C(=O)CO3)c1C | > 100 |  | 106 |  |  |  |
| CCCN1C(=O)COc2ccc(-c3ccccc3OC)cc21 | > 100 | 100 | 79.5 | 1.26 | Active |  |
| CCCN1C(=O)COc2ccc(S(=O)(=O)Nc3ccccc3Br)cc21 | > 100 |  | 132 |  |  |  |
| CCCN1C(=O)COc2ccc(S(=O)(=O)Nc3cccc(N4CCOCC4)c3)cc21 | > 100 |  | 108 |  |  |  |
| CCCN1C(=O)COc2ccc(NS(=O)(=O)c3cccc(C)c3C)cc21 | > 100 |  | 83.2 |  |  |  |
| Cc1c(Cl)cccc1Nc1ccc2c(c1)N(Cc1noc(C3CCC3)n1)C(=O)CO2 | 100 (≈ 42.5 µg/mL) | 118 | 83.9 | 1.4 |  |  |
| CCCN1C(=O)COc2ccc(NS(=O)(=O)c3ccc(F)cc3C)cc21 | > 100 |  | 99.8 |  |  |  |
| CCCN1C(=O)COc2ccc(Nc3cccc(C)c3C)cc21 | > 100 | 108 | 104 | 1.04 |  |  |
| CCCN1C(=O)COc2ccc(S(=O)(=O)N3CCOCC3)cc21 | > 100 |  | 110 |  |  |  |
